Measured values published in patent US20250280843A1, “METHOD FOR INHIBITING POTATOES FROM GREENING AND USE THEREOF” (priority 2024, published 2025).
Like-named read-outs stand apart in the source and are kept apart here.

Experiments:
potato tubers [1] = assay: Determination of greening index a* of potato tuber skin after fumigation; format: in vivo, potato ("V7"); conditions: for greening index a*: fumigation 10 mg 1-MCP + NaOH 16 h; for Value of greening index a*: with NaOH
Text: The method for inhibiting potatoes from greening was: treating potato tubers with 1-MCP, and specifically, fumigating potato tubers with 1-MCP and NaOH.
(§1) “V7” potatoes were used as experimental materials. They were collected from Dongyu Vegetable Market in Ningbo City, Zhejiang Province. They were freshly picked and transported to the laboratory at room temperature. They were cleaned, and tubers of uniform sizes and free of diseases and insect pests and free of mechanical damages were selected as experimental samples. The samples were divided into two groups, immersed in distilled water for 10 min and then naturally air-dried after the immersion treatment was ended.
(§2) One group served as a control group (CK) without any subsequent treatment, and contained 50 potatoes. For another group, a carton was provided, in which 50 potatoes were placed. The carton was placed in a controlled atmosphere storage box with a volume of 1,000 L at a temperature controlled at 25° C. and the humidity maintained at 60%. The gas composition in the controlled atmosphere storage box was maintained the same as that of the atmosphere. A space was reserved in the controlled atmosphere storage box. 10 mg of 1-MCP dry powder was weighed into a glass weighing bottle. The weighing bottle containing 1-mcp was placed in the controlled atmosphere storage box, and added with 2 ml of a 1M NaOH solution to release 1-mcp gas from the weighing bottle. The weight of the gas was 10 mg. The potatoes were placed in the gas environment, fumigated for 16 h, taken out and then air-dried for 1 h. The meaning of “fumigation” here was to put the potatoes in a gas environment of 10 mg 1-mcp in a 1,000 L controlled atmosphere storage box, which was equivalent to a concentration of 0.01 milligrams of the 1-mcp gas per liter of gas.
Subsequently, the potatoes of the control group (2 groups) and the treatment group (2 groups) were bagged (two groups). The two groups were stored in a constant temperature and humidity chamber at 25±1° C. and relative humidity of 60% for 12 d. One of the groups was an illumination group with an illumination intensity of 10,000 LUX, and the other one was a group with protection from light having an illumination intensity of 0 LUX (in the dark). The tuber skin of the potatoes was taken every 3 d and photographed. The skin was then frozen in liquid nitrogen, and stored at −80° C. for subsequent analysis.
Potato tubers treated for corresponding days were picked out. 6 potatoes were randomly selected from each group. the skin of potato tuber was peeled off, and immediately measured for the color difference with a colorimeter (Shenzhen ThreeNH Technology Co., Ltd., model: NR60CP+), and the a* value was determined and recorded with a […] to indicate the color change of the potato skin. a* was an important parameter for measuring color and lustre. The positive or negative value indicated reddish (positive indicated reddish) or greenish (negative indicated greenish), and the magnitude of the absolute value indicated the degree of reddish or greenish. The colorimeter was calibrated with a standard white plate before determination.
Three groups of experiments were set up. One group was as described in Example 1, in which potato tubers were fumigated with 1-MCP and NaOH, serving as the control group in this experiment. The difference between an experimental group 1 and the control group was that no NaOH solution was used, but an equal volume of water was used. The difference between an experimental group 2 and the control group was that no NaOH solution was used, but an equal volume of anhydrous ethanol was used.
This example employed the method provided in Example 1, and employed 1-MCP and NaOH to fumigate potato tubers, where the dosages of 1-MCP were 1, 5, 10, 15, and 20 mg, respectively. The greening index a* value was determined by the same method as in Example 1.

potato tubers [2] = assay: Determination of chlorophyll content; format: in vivo, potato ("V7"); conditions: illumination group, during storage 12 d; vs control
Experimental: as §1
One group served as a control group (CK) without any subsequent treatment, and contained 50 potatoes. For another group, a carton was provided, in which 50 potatoes were placed. The carton was placed in a controlled atmosphere storage box with a volume of 1,000 L at a temperature controlled at 25° C. and the humidity maintained at 60%. The gas composition in the controlled atmosphere storage box was maintained the same as that of the atmosphere. […]
0.2 g of a potato frozen sample (the sample of the illumination group) was taken, grounded into a homogenate with 1.5 mL of 95% (v/v) ethanol in an ice bath, and then centrifuged at a rotational speed of 10.000 r/min for 10 min. The precipitate was discarded, the supernatant was taken, and 95% ethanol was used as a blank group, to determine the absorbance values at 649 nm and 665 nm, respectively. […]

potato tubers [3] = assay: Determination of ethylene release amount; format: in vivo, potato ("V7"); conditions: illumination group, entire storage period 12 d; vs control
Experimental: as §1
One group served as a control group (CK) without any subsequent treatment, and contained 50 potatoes. For another group, a carton was provided, in which 50 potatoes were placed. The carton was placed in a controlled atmosphere storage box with a volume of 1,000 L at a temperature controlled at 25° C. and the humidity maintained at 60%. The gas composition in the controlled atmosphere storage box was maintained the same as that of the atmosphere. A space was reserved in the controlled atmosphere storage box. 10 mg of 1-MCP dry powder was weighed into a glass weighing bottle. […]
4 potato tubers were randomly selected and placed in a sealed container (illumination group). They were placed at respective storage temperatures for 3 h, and then 5 mL of gas was extracted and determined for ethylene content using a Shimadzu type 2014C gas chromatograph (Shimadzu, Japan). […]

potato tubers [4] = assay: Determination of solanine content (LC-MS); format: in vivo, potato ("V7"); conditions: vs control
Experimental: as §1
One group served as a control group (CK) without any subsequent treatment, and contained 50 potatoes. For another group, a carton was provided, in which 50 potatoes were placed. The carton was placed in a controlled atmosphere storage box with a volume of 1,000 L at a temperature controlled at 25° C. and the humidity maintained at 60%. The gas composition in the controlled atmosphere storage box was maintained the same as that of the atmosphere. A space was reserved in the controlled atmosphere storage box. 10 mg of 1-MCP dry powder was weighed into a glass weighing bottle. The weighing bottle containing 1-mcp was placed in the controlled atmosphere storage box, and added with 2 ml of a 1M NaOH solution to release 1-mcp gas from the weighing bottle. The weight of the gas was 10 mg. The potatoes were placed in the gas environment, fumigated for 16 h, taken out and then air-dried for 1 h. The meaning of “fumigation” here was to put the potatoes in a gas environment of 10 mg 1-mcp in a 1,000 L controlled atmosphere storage box, which was equivalent to a concentration of 0.01 milligrams of the 1-mcp gas per liter of gas. […]
Solanine was mainly composed of solanine and chaconine, with solanidine as aglycone. Therefore, α-solanine and α-chaconine (Sigma-Aldrich, USA) were used as chemical standards for quantification of SGA content. • 1) Liquid chromatography conditions: AgilentEclipsePlusC18 chromatographic column (100 mm×2.1 mm, 1.8 μm); the mobile phase A was 1 mmol/L of an acidified ammonium formate solution, and the mobile phase B was acetonitrile. […]

potato tubers [5] = assay: Long-term preservation effect under natural illumination; format: in vivo, potato ("V7"); conditions: for color difference value: natural day/night, 25±1° C.
Experimental: as §2
In order to simulate natural illumination, the aforementioned control and treated potatoes were placed in an incubator (fully transparent), and placed under conditions of 25±1° C. and relative humidity of 60% in an outdoor environment. Based on the environment with natural alternation of day and night, the color difference was calculated through instruments. The change in color difference values was measured every 5 days during storage for 2, 3, and 6 months. […] In the 2nd month of storage, the color difference value of the control group was −14, while the test value of the treatment group was −2.2.

[6] = system: solanine synthesis-related genes; assay: Gene expression by real-time PCR: solanine synthesis genes; design: species or system potato; conditions: during the greening period; vs control
Experimental: Genes related to inhibition of solanine synthesis included StHMGR, StPSS1, StSQE1, StCAS1, StSSR2, StSSR1, StPGA2, StPGA1, StDOX, StGAME6, StPGA3, StGAME12, StSGT1, StSGT2, and StSGT3.
(§3) Total RNA was extracted from frozen potato skins and transformed into cDNA. The expression levels of the aforementioned genes were determined by a Bio-Rad CFX 96 Real-Time PCR System (BIO-RAD, Hercules, CA, USA) and a SYBR Green I Master Mix (Vazyme, Nanjing, Jiangsu, China). Thermocycling conditions included an initial denaturation step at 95° C. for 30 s, followed by 39 cycles of 95° C. for 15 s, then 55° C. for 30 s, and 72° C. for 20 s. Three biological replicates were used, and each replicate was measured for three times. StEF-1a was used as a reference gene for potatoes. Gene expression was calculated by using a 2-ΔCt method.

[7] = system: chlorophyll synthesis-related genes; assay: Gene expression by real-time PCR: chlorophyll synthesis genes; design: species or system potato; conditions: during the greening period; vs control
Experimental: Chlorophyll synthesis-related genes included StHEMA, StGSA, StPBGD, StCPO, StPPO, StCHLD, StCHLI, StCHLH, STCHLHM, StCRD1, StPOR1, StPOR2, StCHLG, and StCHLP.
as §3

[8] = system: chlorophyll degradation-related genes; assay: Gene expression by real-time PCR: chlorophyll degradation genes; design: species or system potato; conditions: during the greening period; vs control
Experimental: Chlorophyll degradation-related genes included StSGR, StNYC1, StTIC, and StPAO.
as §3

StPOD42 = assay: Gene expression by real-time PCR: germination-promoting gene; design: species or system potato; conditions: during storage; vs control
Experimental: Germination-promoting genes included StPOD42 (XM_006363284.2).
as §3

potatoes = format: in vivo, potato; conditions: under illumination; specific experimental data omitted
Text: Ethylene, as a plant hormone that promotes maturity and aging, can be produced by some plants themselves and exists in a certain amount in the storage environment and even in the air. Ethylene binds with a related receptor inside a cell to activate a series of physiological and biochemical reactions related to maturity, thereby accelerating aging and death. 1-MCP can also bind well with an ethylene receptor, but such binding will not cause a biochemical reaction of maturity. Therefore, before the production of endogenous ethylene in a plant or the action of exogenous ethylene, if 1-MCP is applied, it will bind with the ethylene receptor first, thereby preventing the binding of ethylene with the receptor thereof, which greatly prolongs the ripening and aging process of fruits and vegetables and extends the length for preservation. There are many reagents that bind with the ethylene receptor to control the production of ethylene, e.g. aminooxyacetic acid (AOA), salicylic acid (SA), 2,5-norbornadiene (2,5-NBD), silver thiosulfate (STS), and aminooxyvinylglycine (AVG). These reagents are all ethylene inhibitors.

[9] = cited from earlier work

## 1-methylcyclopropene [1-MCP]
Potato tubers [1]; Example 3, 1-MCP released with NaOH solution vs water vs anhydrous ethanol
  greening index a*: fumigation with NaOH compared with equal volume of water or ethanol: significantly improve the effect of 1-MCP in inhibiting greening
Potato tubers [1]; dark (0 LUX), 6th day of storage
  greening index a*: basically no greening
Potato tubers [1]; dosage of 1-MCP 1 mg, storage 12 d
  Value of greening index a*: −3.2
Potato tubers [1]; dosage of 1-MCP 5 mg, storage 12 d
  Value of greening index a*: −2.1
Potato tubers [1]; dosage of 1-MCP 10 mg, storage 12 d
  Value of greening index a*: −1.2
Potato tubers [1]; dosage of 1-MCP 15 mg, storage 12 d
  Value of greening index a*: −1.8
Potato tubers [1]; dosage of 1-MCP 20 mg, storage 12 d
  Value of greening index a*: −2.6
Potato tubers [1]; illumination 10,000 LUX, 25±1° C., storage 12 d, vs control
  greening index a*: still remained at a relatively high level
Potato tubers [2]
  chlorophyll content: increased slowly compared with the control group
Potato tubers [3]
  ethylene release amount: always lower than that of the control group
Potato tubers [4]; during storage, dark or light
  solanine content: increased very slowly
Potato tubers [4]; starting from the 3rd day
  α-chaconine content: significantly different from those in the control group
  α-solanine content: significantly different from those in the control group
Potato tubers [5]; 2nd month of storage
  appearance (green spots): no obvious changes
  color difference value: −2.2
Potato tubers [5]; 3 months of storage
  germination in appearance: a small amount of germination
  occurrence of greening: no occurrence of greening
  color difference value: −3.4
Potato tubers [5]; 6 months of storage
  germination: a small amount of germination
  occurrence of greening: no occurrence of greening
  solanine content: maintained within a safe range
  color difference value: −6.7
[6]
  expression amount of solanine synthesis-related genes: significantly lower than those in the control group
[7]
  expression amount of chlorophyll synthesis-related genes: significantly lower than those in the control group
[8]
  expression amount of chlorophyll degradation genes: significantly higher than those in the control group
StPOD42
  expression of the germination-promoting gene StPOD42: did not affect the expression
potatoes
  effect on greening of potatoes: significantly inhibit potatoes from greening
[9]; 3-dichlorotoluene
  solubility in solvent: 2000 µg/mL
[9]; 20° C.
  water solubility: 137 µg/mL
[9]; acetone
  solubility in solvent: 2400 µg/mL
[9]; ethyl acetate
  solubility in solvent: 12500 µg/mL
[9]; heptane
  solubility in solvent: 2500 µg/mL
[9]; methanol
  solubility in solvent: 11250 µg/mL
[9]; xylene
  solubility in solvent: 2300 µg/mL

## C1=CC2C=CC1C2 [2,5-norbornadiene]
potatoes
  effect on greening of potatoes: accelerate the greening progress

## NOCC(=O)O [aminooxyacetic acid]
potatoes
  effect on greening of potatoes: will not inhibit the potatoes from greening

## O=C(O)c1ccccc1O [salicylic acid]
potatoes
  effect on greening of potatoes: accelerate the greening progress

## silver thiosulfate
potatoes
  effect on greening of potatoes: will not inhibit the potatoes from greening
